According to patent US10370366B2 (Flatley Discovery Lab, LLC, priority 2013, dated 2019):

Biological target: T1, human F508del CFTR (Homo sapiens, UniProt P13569, DEL508-508)
T1 construct: expressed in transfected cells; host or cells: Fisher Rat Thyroid (FRT) cells
Assay: CFTR-YFP High Throughput Assay
Assay type: cell-based
Conditions: FRT cells expressing human F508del CFTR and YFP
Method in brief: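 FRT cells stably co-expressing human F508del CFTR and halide-sensitive YFP-H148Q/I152L; for correction, compound (2 nM-40 μM) incubated 24-26 h at 37° C, washed, then stimulated 60-120 min at RT with 20 μM forskolin plus 30 μM potentiator P3. Iodide-induced YFP quench (Ex 500/Em 540 nm) recorded; quench rates least-squares fitted.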

T1 sequence (P13569 with tags, fused parts or gaps DEL508-508): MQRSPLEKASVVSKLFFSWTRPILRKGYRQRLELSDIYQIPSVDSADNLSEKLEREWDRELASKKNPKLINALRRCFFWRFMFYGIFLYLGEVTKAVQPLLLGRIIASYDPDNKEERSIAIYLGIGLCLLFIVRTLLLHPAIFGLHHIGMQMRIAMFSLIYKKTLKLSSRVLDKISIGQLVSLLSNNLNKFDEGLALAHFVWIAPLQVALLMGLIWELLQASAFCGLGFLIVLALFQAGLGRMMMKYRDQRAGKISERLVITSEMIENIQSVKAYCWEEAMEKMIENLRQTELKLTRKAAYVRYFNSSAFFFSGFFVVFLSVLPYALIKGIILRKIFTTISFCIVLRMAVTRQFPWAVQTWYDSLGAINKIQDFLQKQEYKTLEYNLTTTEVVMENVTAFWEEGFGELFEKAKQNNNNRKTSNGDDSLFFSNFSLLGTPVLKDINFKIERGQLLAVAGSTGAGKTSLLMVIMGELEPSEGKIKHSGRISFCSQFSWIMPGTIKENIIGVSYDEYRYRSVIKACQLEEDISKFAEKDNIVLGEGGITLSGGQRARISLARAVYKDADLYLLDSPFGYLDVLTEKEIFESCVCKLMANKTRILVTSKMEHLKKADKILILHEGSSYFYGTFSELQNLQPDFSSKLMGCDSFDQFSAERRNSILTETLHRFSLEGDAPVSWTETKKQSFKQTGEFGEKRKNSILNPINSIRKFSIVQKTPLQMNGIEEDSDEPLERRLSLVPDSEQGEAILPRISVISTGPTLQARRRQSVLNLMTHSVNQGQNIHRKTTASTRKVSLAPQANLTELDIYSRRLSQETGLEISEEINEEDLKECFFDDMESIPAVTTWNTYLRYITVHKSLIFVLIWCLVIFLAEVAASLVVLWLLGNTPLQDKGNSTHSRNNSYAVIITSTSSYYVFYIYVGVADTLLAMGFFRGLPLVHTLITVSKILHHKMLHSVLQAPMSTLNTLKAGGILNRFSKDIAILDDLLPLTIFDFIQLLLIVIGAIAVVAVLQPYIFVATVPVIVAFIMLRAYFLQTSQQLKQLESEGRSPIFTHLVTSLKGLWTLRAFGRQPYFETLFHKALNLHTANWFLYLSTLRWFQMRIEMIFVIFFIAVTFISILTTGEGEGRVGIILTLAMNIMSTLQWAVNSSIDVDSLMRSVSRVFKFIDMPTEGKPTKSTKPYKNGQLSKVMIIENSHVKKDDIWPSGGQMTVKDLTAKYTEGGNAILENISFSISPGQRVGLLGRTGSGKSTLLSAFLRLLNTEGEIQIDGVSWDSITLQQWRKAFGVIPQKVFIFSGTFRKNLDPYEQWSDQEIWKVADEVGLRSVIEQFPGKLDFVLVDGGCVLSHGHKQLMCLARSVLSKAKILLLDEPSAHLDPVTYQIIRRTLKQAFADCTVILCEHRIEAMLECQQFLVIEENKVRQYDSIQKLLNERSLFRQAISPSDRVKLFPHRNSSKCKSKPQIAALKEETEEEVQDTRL

CCc1ccc(N(CC)C(=O)Cn2nc(-c3ccc(S(C)(=O)=O)cc3)c3ccccc3c2=O)cc1 [Example 16, N-ethyl-N-(4-ethylphenyl)-2-(4-(4-(methylsulfanoyl)phenyl)-1-oxophthalazin-2(1H)-yl)acetamide]
Emax (EMax normalized to the positive control, read-out: % Efficacy): 30 to 80% | EC50: < 10 µM
